Experimental data: PubChem BioAssay (NCI)
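Growth conditions: 96-well plates. Treatment: test compound, 48 hours, 5 concentrations. Analysis: linear interpolation between bracketing concentrations; unreached endpoints set to highest concentration. TGI: total growth inhibition.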

Columns and labels:
Test in all cases: NCI-60 cell line screen, 48 h
HCC-2998 colon = system: HCC-2998 colon
CAKI-1 renal = system: CAKI-1 renal
OVCAR-5 ovarian = system: OVCAR-5 ovarian
KM12 colon = system: KM12 colon
HL-60(TB) leukemia = system: HL-60(TB) leukemia
NCI-H226 lung = system: NCI-H226 lung
NCI-H522 lung = system: NCI-H522 lung
CCRF-CEM leukemia = system: CCRF-CEM leukemia
NCI-H460 lung = system: NCI-H460 lung
UACC-257 melanoma = system: UACC-257 melanoma
ACHN renal = system: ACHN renal
DU-145 prostate = system: DU-145 prostate
SNB-19 CNS = system: SNB-19 CNS
MDA-N = system: MDA-N
BT-549 breast = system: BT-549 breast
EKVX NSCLC = system: EKVX NSCLC
COLO 205 colon = system: COLO 205 colon
MCF7 breast = system: MCF7 breast
A549 NSCLC = system: A549 NSCLC
U251 CNS = system: U251 CNS

Compound | TGI (HCC-2998 colon) [µM] | TGI (CAKI-1 renal) [µM] | TGI (OVCAR-5 ovarian) [µM] | TGI (KM12 colon) [µM] | TGI (HL-60(TB) leukemia) [µM] | TGI (NCI-H226 lung) [µM] | TGI (NCI-H522 lung) [µM] | TGI (CCRF-CEM leukemia) [µM] | TGI (NCI-H460 lung) [µM] | TGI (UACC-257 melanoma) [µM] | TGI (ACHN renal) [µM] | TGI (DU-145 prostate) [µM] | TGI (SNB-19 CNS) [µM] | TGI (MDA-N) [µM] | TGI (BT-549 breast) [µM] | TGI (EKVX NSCLC) [µM] | TGI (COLO 205 colon) [µM] | TGI (MCF7 breast) [µM] | TGI (A549 NSCLC) [µM] | TGI (U251 CNS) [µM]
CN(C)Cc1cc(N=Nc2ccccc2Cl)cc(CN(C)C)c1O | > 100 | > 100 | > 100 | > 100 | 62.8 | > 100 | 28.8 | 76.7 | > 100 | 41.4 | > 100 | > 100 | > 100 | 79.3 | > 100 | > 100 | > 100 | > 100 | > 100 | > 100
CC1CC[C@@]2(OC1)OC1C[C@H]3[C@@H]4CC[C@H]5CC(OC6OC(CO)C(OC7OC(CO)C(O)C(O)C7O)C(O)C6O)CCC5(C)[C@H]4CCC3(C)C1[C@@H]2C (stereo partly drawn) | 12.9 | 16.9 | 17.2 | 15.8 | 18.5 | 16.5 | 13.8 | 21.7 | 21.1 | 18.3 | 14.5 | 18 | 17.9 | 16.3 | 11 | 12.2 | 14 | 15 | 19.6 | 17.4
CC(C)(C)OC(=O)CN1CCNCCN(CC(=O)OC(C)(C)C)CC1 | > 100 | > 100 | > 100 | > 100 | 86.1 | > 100 | > 100 | > 100 | > 100 | > 100 | > 100 | > 100 | > 100 | > 100 | > 100 | > 100 | > 100 | > 100 | > 100 | 
O=[N+]([O-])c1ccc(N=NN2CCCC2)cc1 | 20.6 | > 100 | > 100 | > 100 | > 100 | > 100 | > 100 | > 100 | > 100 | > 100 | > 100 | > 100 | > 100 | > 100 | > 100 | > 100 | > 100 | > 100 |  | > 100
COc1ccc(C2NC3=C(CCCC3)C3(C#N)C(=O)N=C(N)C23C#N)cc1 (stereo not drawn) | > 100 | > 100 | > 100 | > 100 | > 100 | > 100 | > 100 | 91.9 | > 100 | > 100 | > 100 | > 100 | > 100 | > 100 | > 100 | > 100 | > 100 | > 100 | > 100 | > 100
O=C1C(N=Nc2ccc(-c3nc4ccccc4o3)cc2)NC(=S)N1c1ccccc1 (stereo not drawn) | > 100 | > 100 | > 100 | > 100 | 0.742 | > 100 | > 100 | 0.679 | > 100 | > 100 | > 100 | > 100 | > 100 | > 100 | > 100 | > 100 | > 100 | > 100 | > 100 | > 100
c1ccc2c(c1)CCN2CCc1c[nH]c2ccccc12 | > 10 | > 10 | > 10 | > 10 | > 10 | > 10 | > 10 | > 10 | > 10 | > 10 | > 10 | > 10 | > 10 | > 10 | > 10 | > 10 | > 10 | > 10 | > 10 | > 10
Cc1cc(NS(=O)(=O)c2ccc(Nc3c4ccccc4nc4ccc(C(=O)Nc5ccc(S(=O)(=O)N=C(N)N)cc5)cc34)cc2)no1 | > 100 | > 100 | > 100 | > 100 | > 100 | > 100 | > 100 | > 100 | > 100 | > 100 | > 100 | > 100 | > 100 | > 100 | > 100 | > 100 | > 100 | > 100 | > 100 | > 100
COc1ccc(NCC(=O)Nn2c(C)nc3ccc(S(=O)(=O)Nc4ccc(OC)cc4)cc3c2=O)cc1 | > 100 | > 100 | > 100 | > 100 | > 100 | > 100 | > 100 | > 100 | > 100 | > 100 | > 100 | > 100 | > 100 | > 100 | > 100 | > 100 | > 100 | > 100 | > 100 | > 100
Cc1ccc(-c2n[nH]c(=O)[nH]2)cc1 | > 100 | > 100 | > 100 | > 100 | > 100 | > 100 | > 100 | > 100 | > 100 | 98.7 | > 100 | > 100 | > 100 | > 100 | > 100 | > 100 | > 100 | > 100 | > 100 | > 100
CN(N)/N=N/c1nc[nH]c1C(N)=O | > 42.2 | 55.2 | > 100 | > 82.4 | 14.6 | > 100 | > 100 | > 27 | > 71.5 | > 100 | > 100 | > 100 | > 100 | > 100 | > 100 | > 100 | > 69.7 | > 100 | > 100 | > 100
CN1C(=O)C(O)CC1c1cccc(F)c1 (stereo not drawn) | > 100 | > 100 | > 100 | > 100 | > 100 | > 100 | > 100 | > 100 | > 100 | > 100 | > 100 | > 100 | > 100 | > 100 | > 100 | > 100 | > 100 | > 100 | > 100 | > 100
Nc1nnc(-c2ccco2)c(-c2ccco2)n1 | > 100 | > 100 | > 100 | > 100 | > 100 | > 100 | > 100 | > 100 | > 100 | > 100 | > 100 | > 100 | > 100 | > 100 | > 100 | > 100 | > 100 | > 100 | > 100 | > 100
CCCCCCCC(=O)N/N=C/c1ccc(Sc2nccn2C)c([N+](=O)[O-])c1 | 26.5 | 72.1 | 39.2 | 32.1 | 0.772 | 32.5 | 28.4 | 17.2 | 30.5 | 26.9 | 75.2 | 46.7 | 87 | 32 | 34.2 | 42.8 | 27.5 | 38.2 | > 100 | 32.2
CSc1c(C(=O)Nc2ccc(Cl)cc2)c(N)[nH]c(=O)c1C#N | > 90.2 | > 61.1 | > 89.2 | > 100 | > 100 | > 100 | 51.7 | > 100 | > 100 | > 93.7 | > 100 | > 100 | > 100 | > 70 | > 91.1 | > 80 | 45.8 | > 78.6 | > 100 | > 71.4
O=C(O)c1cc2c(s1)C(=O)c1sccc1C2=O | 33.6 | 31.8 | 23.4 | 21.1 | 19 | 37.1 | 8.58 | 33.1 | 33 | 6.27 | 25.1 | 5.85 | 17.1 | 1.68 | 3.78 | 30.5 | 32.7 | 7.91 | 8.39 | 15.6
N=c1oc2ccc(Cl)cc2cc1C(=O)Nc1ccccc1 | > 100 | > 100 | > 100 | > 100 | > 100 | > 100 | > 100 | > 100 | > 100 | > 100 | > 100 | > 100 | > 100 | > 100 | > 100 | > 100 | > 100 | > 100 | > 100 | > 93
NC1=Nc2ccccc2Sc2nnc(-c3ccc(Cl)cc3)n21 | > 100 | > 100 | > 100 | > 100 | > 100 | > 100 | 68.3 | 56.2 | > 100 | > 100 | > 100 | > 100 | > 100 | > 100 | > 100 | > 100 | > 100 | > 100 | > 100 | 80.6
